{"source": "patent US20150010473A1", "about": "“DIAGNOSIS AND TREATMENT OF TUMORS” (MORPHOTEK, INC., priority 2006, published 2015)", "key": {"[1]": {"test_system": "membrane of glioma cells", "conditions": "Soroceanu et al. 1998; cited from earlier work"}, "[2]": {"test_system": "glioma cells", "conditions": "Ullrich and Sontheimer 1997; cited from earlier work"}, "[3]": {"test_system": "primitive neuroectodermal tumors", "assay": "Histochemical staining of biopsy sections with biotinylated chlorotoxin, summary", "assay_type": "binding, human", "conditions": "of 53 patients tested", "from_the_text": "Most of the samples of human tissue, from both sexes, of different ages and races were obtained through the Cooperative Human Tissue Network, Tissue Procurement at UAB, UAB hospitals and the Human Brain Tissue Bank in London, Canada. Snap frozen tissue and fresh tissue embedded in a freezing gel were sliced at 8 microns and picked up onto positively charged glass slides. The sections were then fixed in 4% paraformaldehyde or milloniqs according to the staining protocol. Paraffin blocks were sectioned and prepared according to standard procedures.\nBiopsy sections were blocked for 1 hour in 10% normal goat serum in PBS and treated with a dilution of biotinylated chlorotoxin overnight at 4° C. […]\nFinally, a third adjacent section was stained with both hematoxylin, a cell nuclei specific stain, and eosin, a cytoplasmic stain. Therefore, for each tissue analyzed, three adjacent sections were stained. […] In the photomicrographs, adjacent sections are identified as follows: TM-601: biotinylated chlorotoxin detected by a brown reaction product of DAB with the biotin and further counterstained with methyl. green; Control: the control section stained with only methyl green; and, H&E: the hematoxylin and eosin stained section. […]"}, "[4]": {"test_system": "glioma cells", "conditions": "Transwell assays; Soroceanu et al.; cited from earlier work"}}}
{"substance": "chlorotoxin", "values": [{"measurement": "binding to glioma cells", "setting": "[1]", "result": "selectively binds to the membrane of glioma cells"}, {"measurement": "effect on glioma cell proliferation", "setting": "[2]", "result": "enhances glioma cell proliferation"}, {"measurement": "patients whose tumor material showed chlorotoxin specificity", "setting": "[3]", "result": 50}, {"measurement": "effect on glioma cell migration", "setting": "[4]", "result": "inhibits the ability of glioma cells to migrate"}]}
